From patent US12064577B2, “Drug-coated balloon” (Intersect ENT, Inc., priority 2015, dated 2024)
Read-outs that look alike come from different tables or passages of the source.

Columns and labels:
[1] = Drug uptake into sinus tissue after drug coated balloon delivery, ovine model (HPLC of tissue samples); type: in vivo; conditions: other: drug coated balloon expanded in the maxillary sinus, sheep, Example 3 balloon (solvent vapor annealed coating) expanded 5 minutes in maxillary sinus, tissue sampled after 7 days
Description: (§1) A 30 mm 80A Pellethane® compliant balloon was cleaned with 70% isopropanol and dried in an oven. The balloon was then treated with oxygen plasma and immediately spray coated with a mometasone furoate formulation listed in Table 1. Post-spray pass drying was conducted with nitrogen gas. Next, the drug coated balloon was treated by solvent vapor annealing (i.e., exposed to a solvent vapor) in a sealed chamber saturated with ethanol for four hours at room temperature. After solvent vapor annealing, the balloon was re-folded and heat set using a custom pleating machine. The coated balloon was then sheathed and packaged under nitrogen gas and sterilized by electron beam irradiation.
(§2) A drug coated balloon made using the process described in Example 3 was advanced to a sheep maxillary sinus using a rigid 4 mm endoscope and expanded for 5 minutes, and then deflated and removed from the nostril. After 7 days the animal was sacrificed and tissue samples obtained from the maxillary sinus and surrounding tissues. […] Plasma concentration of mometasone furoate was also measured over 7 days. Referring to Table 3 below and FIG. 3, mometasone furoate (MF) plasma concentration was low and found to decrease over the 7 day period from an initially low value. […] Low systemic exposure generally lowers the risk of a patient experiencing side effects from the delivered drug.

[2] = Plasma concentration of mometasone furoate after drug coated balloon delivery to ovine maxillary sinus; type: in vivo; conditions: other: drug coated balloon expanded in the maxillary sinus, sheep, read-out: MF Plasma Concentration
Description: as §1, §2

C[C@@H]1C[C@H]2[C@@H]3CCC4=CC(=O)C=C[C@]4(C)[C@@]3(Cl)[C@@H](O)C[C@]2(C)[C@@]1(OC(=O)c1ccco1)C(=O)CCl [mometasone furoate]
concentration at 7 days ([1]; read-out: mometasone furoate concentration in maxillary sinus tissue): 146 ng/g | concentration at 7 days ([1]; tissues surrounding the maxillary sinus, read-out: mometasone furoate concentration in tissues surrounding the maxillary sinus): 55 ng/g | concentration at 0 day ([2]; day 0 after Example 3 balloon delivery to maxillary sinus): 0.3 ng/mL | concentration at 1 day ([2]; day 1 after Example 3 balloon delivery to maxillary sinus): 0.3 ng/mL | concentration at 4 day ([2]; day 4 after Example 3 balloon delivery to maxillary sinus): 0.05 ng/mL | concentration at 7 day ([2]; day 7 after Example 3 balloon delivery to maxillary sinus): < 0.01 ng/mL
